Experimental data reported in US20250275968A1, “INHIBITORS OF TAU PROTEINS” (DEUTSCHES ZENTRUM FÜR NEURODEGENERATIVE ERKRANKUNGEN E.V., priority 2022, published 2025).
Where a name gives a salt, the structure may show the parent alone. Each block holds one molecule with its values, some of them ahead of it.

What was measured:
2N4R tau aggregates = molecular target: T1, 2N4R tau aggregates (Homo sapiens, UniProt P10636); test: Dissolution of preformed 2N4R tau fibrils (ThT fluorescence, TEM); format: biochemical; details: compounds added to tau fibrils after about 40 h; tau monomer:Compound 1:3 and 1:10
T1 construct: Full-length 2N4R tau was incubated with Osimertinib mesylate
T1 sequence (P10636 1-441 isoform P10636-8): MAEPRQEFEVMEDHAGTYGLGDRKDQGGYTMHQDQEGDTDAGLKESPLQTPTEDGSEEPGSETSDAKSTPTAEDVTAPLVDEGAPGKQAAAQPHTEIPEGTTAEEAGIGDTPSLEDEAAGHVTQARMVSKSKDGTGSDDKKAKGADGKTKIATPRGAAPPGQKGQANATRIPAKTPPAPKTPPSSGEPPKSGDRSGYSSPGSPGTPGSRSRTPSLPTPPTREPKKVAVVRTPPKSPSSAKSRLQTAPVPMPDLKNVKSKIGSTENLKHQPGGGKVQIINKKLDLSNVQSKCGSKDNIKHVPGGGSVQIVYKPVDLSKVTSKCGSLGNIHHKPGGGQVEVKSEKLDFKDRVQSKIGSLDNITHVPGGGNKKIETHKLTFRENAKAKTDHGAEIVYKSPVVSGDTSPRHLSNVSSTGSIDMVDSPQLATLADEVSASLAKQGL
Method: (A) ThT fluorescence curves monitoring tau aggregation. tau fibrillization reached a saturation point within about 40 h, then compounds or buffer (Reference) were added to tau fibrils (tau monomer:Compound mole ratios 1:3 and 1:10). The experiment was performed in duplicate. […] Statistically significant differences were determined by one-way ANOVA with Dunnett's multiple comparison test. Significant differences corresponding to p≤0.0002(***) and p≤0.0001(****) are indicated. […] Scale bars are 500 nm. […] The dotted line corresponds to one standard deviation above the Reference value.
(§1) To prepare the Tau fibril seeds by de novo aggregation, 2N4R Tau at a monomer concentration of 25 μM was diluted in aggregation buffer. The working concentration of TCEP in the aggregation mixture was <25 μM after dilution of the stock. To this mixture, Thioflavin T (ThT) was added to a final concentration of 50 μM. A total volume of 100 μL of the Tau-ThT mixture was incubated in a well of a 96-well microplate (Greiner Bio-one), in the presence of two polytetrafluoroethylene beads. The microplate was subjected to a program implemented in a Tecan Spark plate reader that involved incubating at 37° C., with intervals of double orbital shaking and ThT fluorescence emission measurement. The excitation wavelength for ThT was set as 430 nm and the emission wavelength was 485 nm. Details of this plate reader program were published previously (Reference: Chakraborty, P. et al. Co-factor-free aggregation of tau into seeding-competent RNA-sequestering amyloid fibrils. Nat. Commun. 12, 4231 (2021)). […] The fibril-containing mixture collected from the microplate served as a seeding mixture for the subsequent aggregation assays.
Fibril samples were negative stained using glow discharged 400 mesh carbon-coated copper grids. After staining using a 1% uranyl acetate solution, images were acquired on a Talos L120C transmission electron microscope (Thermo Fisher, Eindhoven, The Netherlands).

15N-labeled 2N4R tau = molecular target: T2, 15N-labeled 2N4R tau (Homo sapiens, UniProt P10636); test: SOFAST-HMQC NMR binding to monomeric tau; details: 18 μM tau, 50 mM sodium phosphate pH 6.8, 16 h at 37° C., spectra at 5° C.
T2 construct: Full-length 2N4R tau was incubated with Osimertinib mesylate
T2 sequence (P10636 1-441 isoform P10636-8): as above
Description: (A) Overlaid spectra of 2N4R tau with (black) and without (grey) a 100-fold molar excess of Osimertinib mesylate.
To obtain residue-specific information about the interaction between Tau and the compounds, ^1H-^15N correlation spectra of 2N4R Tau were monitored over the course of a titration with increasing amounts of compound. The ^1H-^15N SOFAST-HMQC (Reference: Schanda, P., Kupce, E. & Brutscher, B. SOFAST-HMQC experiments for recording two-dimensional heteronuclear correlation spectra of proteins within a few seconds. J. Biomol. NMR 33, 199-211 (2005)) spectra of [U-^15N]-Tau were acquired at 5° C. on a Bruker 800 MHz spectrometer equipped with a triple-resonance cryoprobe. Tau samples (18-25 μM) were prepared in NMR buffer containing 10% (v/v) D2O, and with compound concentrations that corresponded to Tau:compound mole ratios of 1:10 and 1:100. All NMR samples were incubated overnight (˜16 h) at 37° C. prior to spectral acquisition. Tau amide assignments were taken from a previous study (Reference: Mukrasch, M. et al. Structural polymorphism of 441-residue tau at single residue resolution. PLoS Biol. 7, e34 (2009)). However, because previous assignments were obtained using a Tau sample prepared in the presence of reducing agents, some amide resonances belonging to the repeat region of Tau (close to C291 and C322) were not unambiguously transferred to the SOFAST-HMQC spectra acquired under oxidizing conditions. Therefore, to obtain nearly complete backbone assignments in the repeat region, 3D HNCA, 3D HNCOCA, and 3D CBCACONH spectra were recorded for a [U-^13C,^15N]-4R Tau (K18 construct) sample prepared under the same buffer condition. The weighted, normalized chemical shift perturbations (CSP) were calculated as CSP=√[0.5 [(Δδ H)^2+(Δδ N)^2/25]. NMR signal intensity ratios, I/I0 (where I is the peak intensity of Tau amide backbone resonances in the presence of the compounds, and I0 is the peak intensity in the absence of the compounds), were calculated for each titration point.

2N4R Tau fibrils = molecular target: T3, 2N4R Tau fibrils (Homo sapiens, UniProt P10636); test: Saturation transfer difference (STD) NMR with tau fibrils; format: binding; details: 48-fold excess of compound, 100 mM NaCl, 2.5% (v/v) DMSO, pH 6.8, 37° C.
T3 construct: Full-length 2N4R tau was incubated with Osimertinib mesylate
T3 sequence (P10636 1-441 isoform P10636-8): as above
Method: 2N4R Tau fibrils were prepared using the aggregation procedure described in the section in vitro assay 1 without Thioflavin T. The mole ratio of “free” compound to fibrils was 48:1 (corresponding to a total compound concentration of 250 μM and a total fibril concentration of 5 μM Tau). The NMR samples were prepared in 50 mM sodium phosphate with 100 mM NaCl and 2.5% (v/v) DMSO at pH 6.8. The spectra were recorded at 37° C. using a Bruker 700 MHz spectrometer equipped with a triple resonance cryoprobe. 1D ^1H-NMR STD spectra were acquired in an interleaved manner, alternating between off-resonance irradiation at 60 ppm and on-resonance irradiation at −2 ppm.

[1] = tested on: HEK293T biosensor cells expressing the human tau repeat domain (RD) harboring the P301L/V337M mutation (TauRD^LM-GFP); test: HEK biosensor cell tau seeding assay; format: cell-based; details: for compound concentration up to which total amount of cells remained close to 100% (low toxicity): HEK biosensor cells, relative to vehicle (DMSO)
Method: Compound stock solutions were prepared as 10 mM compound in DMSO.
HEK293T biosensor cells expressing the human tau repeat domain (RD) harboring the P301L/V337M mutation and fused to a C-terminal GFP tag (named TauRD^LM-GFP) were engineered to probe Tau seeding in cellula (Reference: Liu, S., Hossinger, A., Heumüller, S E. et al. Highly efficient intercellular spreading of protein misfolding mediated by viral ligand-receptor interactions. Nat Commun 12, 5739 (2021). https://doi.org/10.1038/s41467-021-25855-2). HEK cells expressing the P301L human full-length Tau, C-terminally tagged with GFP were incubated with pre-sonicated hTau40^P301L fibrils to induce Tau aggregate formation. Cells were harvested and the resulting cell lysate was used to seed Tau aggregation in further experiments with HEK TauRD^LM-GFP cells.
In a typical seeded assay, HEK cells were incubated with cell lysate, compounds (0-40 μM) and lipofectamine for 22-48 hours. Negative control experiments in the absence of compounds (only with vehicle DMSO) and in the presence of cell lysate were performed in parallel.
Dose response curves were constructed by quantifying the number of cells with aggregates for each compound concentration. The curves were fitted with a sigmoid function using Graphpad PRISM version 8. The inhibitory concentration at 50% activity (IC50) was determined for each compound.

[2] = tested on: tau-induced degeneration of Drosophila eyes (GMR-Gal4/WT tau); test: Drosophila neurodegeneration model (eye degeneration); format: in vivo; details: GMR-Gal4/WT tau flies treated in food from larvae stage to adult stage
Method: Stock solutions of individual compounds were prepared by dissolving 10 mg of the compound in 100 μl of 100% DMSO. Osimertinib, Osimertinib mesylate and AZ7550 mesylate were orally fed to the flies by mixing them with food. The final concentration of each compound, which was used for treating the Drosophila, was derived on the basis of recommended concentrations for human use (reference concentration) based on body weight.
We have used three concentrations for each compound. One was equal to the reference concentration, and two were higher than the reference concentration. Final concentrations of different compounds mixed with fly food are: Osimertinib mesylate, […]; Osimertinib, […]; AZ 7550 mesylate, 10 µM and 20 µM. After hatching, first instar larvae were transferred onto the food containing one of the compounds. Food mixed with drug at required concentration was replaced with fresh food every 48 h.
Light microscopy was performed after mounting the fly heads on the glass slide using a double-sided adhesive tape. Full-eye images were captured with the help of an Infinity Analyze camera attached to an Olympus SZX7 microscope with a halogen light source. Total eye surface area and degenerated eye surface area were marked and calculated with Infinity Analyze software (Lumenera corporation). Percentage of degenerated area was calculated and plotted using GraphPad Prism 8.
After the eclosion, treated and control flies (2-3 days old) were fixed in 1% formaldehyde for two hours, followed by serial dehydration steps of 12 hrs each in 25%, 50%, 75% and 100% ethanol were carried out. Flies were stored in 100% ethanol and dried with CPD before mounting on the stab for imaging. Eye Images were captured at 150× and analyzed using Infinity Analyze software.

tau(244-372, 13818 Da) = molecular target: T4, tau(244-372, 13818 Da) (Homo sapiens, UniProt P10636); test: ESI-MS covalent modification of tau; format: binding
T4 construct: comprising residues 244-372 of 2N4R Tau
T4 sequence (P10636 561-689): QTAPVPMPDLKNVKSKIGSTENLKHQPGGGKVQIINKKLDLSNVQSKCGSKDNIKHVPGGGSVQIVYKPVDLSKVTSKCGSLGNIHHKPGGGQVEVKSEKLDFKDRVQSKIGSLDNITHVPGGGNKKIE
Method: This analysis was performed using the 4R Tau construct (K18 construct, 13818 Da) comprising residues 244-372 of 2N4R Tau. Compounds (330 μM) were incubated with 4R Tau (65 μM) for 16 h at 37° C. in 10 mM ammonium bicarbonate at pH 7.0. The compound/4R Tau mixtures were injected into an LC system (ACQUITY) coupled to a single quadrupole mass detection system (SQ Detector 2, Waters) with diode-array detectors (DAD). The DAD spectrum covers wavelengths of 210-400 nm. Components of the compound-4R Tau mixture were separated using a BioResolve RP mAb column (Waters) with a gradient of 5-95% buffer B (buffer A is 0.1% TFA in water and buffer B is 0.1% TFA in acetonitrile). Covalent modification of 4R Tau corresponded to mass additions of 500 Da (Osimertinib) and 486 Da (AZ7550 or AZ5104).

2N4R tau = molecular target: T5, 2N4R tau (Homo sapiens, UniProt P10636); test: In vitro seeded aggregation/fibrillization assay of 2N4R tau (ThT fluorescence); format: biochemical
T5 construct: Full-length 2N4R tau was incubated with Osimertinib mesylate
T5 sequence (P10636 1-441 isoform P10636-8): as the sequence (P10636 1-441 isoform P10636-8) above
Method: Aggregation of 2N4R Tau was performed using a previously published co-factor-free aggregation protocol, with a few modifications (Reference: Chakraborty, P. et al. Co-factor-free aggregation of tau into seeding-competent RNA-sequestering amyloid fibrils. Nat. Commun. 12, 4231 (2021)). Aggregation experiments used the Tau protein stock prepared in 25 mM HEPES pH 7.4, 1 mM TCEP. Stocks of compounds were prepared in aggregation buffer (25 mM HEPES, 10 mM KCl, 5 mM MgCl2, pH 7.2) or in DMSO (10 mM compound).
as §1
Seeded aggregation assays were performed as described above but with 1.0% of the well volume occupied by the seeding mixture sonicated for 1 minute. The assays were performed in the presence and absence of compounds, and working concentrations ranged from 0-250 μM compound.
Analyses of the fluorescence curves were performed using Graphpad PRISM version 8. Fluorescence data were fit to a sigmoid function. The number of hours corresponding to half-maximal ThT Fluorescence™ as well as the span of fluorescence intensity (Span) were determined for each sigmoid curve. Statistically significant differences were determined by one-way ANOVA analysis with Dunnett's multiple comparison test or unpaired t-test.

dissolution of 2N4R tau aggregates (reduction of ThT fluorescence intensity) (2N4R tau aggregates): partially dissolve | binding to tau (NMR spectroscopy) (15N-labeled 2N4R tau): reveals binding | STD effect with tau fibrils (fibril binding epitopes) (2N4R Tau fibrils): Protons showing STD effects
Compound: C=CC(=O)Nc1cc(Nc2nccc(-c3cn(C)c4ccccc34)n2)c(OC)cc1N(C)CCNC [AZ7550 hydrochloride, N-[4-methoxy-5-[4-(1-methyl-1H-indol-3-yl)-2-pyrimidinyl]amino]-2-[methyl[2-(methylamino)ethyl]amino]phenyl]-2-Propenamide hydrochloride]
compound concentration up to which total amount of cells remained close to 100% (low toxicity) [1]: about 5.0 μM

Compound: C=CC(=O)Nc1cc(Nc2nccc(-c3cn(C)c4ccccc34)n2)c(OC)cc1N(C)CCNC [AZ7550 mesylate, N-[4-methoxy-5-[[4-(1-methyl-1H-indol-3-yl)-2-pyrimidinyl]amino]-2-[methyl[2-(methylamino)ethyl]amino]phenyl]-2-Propenamide]
tau-induced degeneration of Drosophila eyes (percent degeneration, light microscopy) [2]: rescue tau-induced degeneration of Drosophila eyes

In vitro seeded aggregation/fibrillization of full-length tau (ThT fluorescence curves) (2N4R tau; 2N4R tau, various formulations): inhibited in a dose-dependent manner
Compound: C=CC(=O)Nc1cc(Nc2nccc(-c3cn(C)c4ccccc34)n2)c(OC)cc1N(C)CCNC [Compound 2]
covalent modification of cysteines in tau (ESI-MS) (tau(244-372, 13818 Da)): confirms covalent modification of cysteines

Compound: C=CC(=O)Nc1cc(Nc2cc(-c3cn(C)c4ccccc34)nc(OC)n2)c(OC)cc1N(C)CCN(C)C [Compound 9]
compound concentration up to which total amount of cells remained close to 100% (low toxicity) [1]: about 4.0 μM

efficacy of aggregation delay compared to Compound 1 (2N4R tau; 1:3 Tau:compound mole ratio, 2.5% (v/v) DMSO): notably more efficacious | normalized Tm, extent of aggregation delay (2N4R tau; 1:3 Tau:compound mole ratio, 2.5% (v/v) DMSO, at least 3 replicates): significant delay of aggregation
Compound: C=CC(=O)Nc1cc(COc2cc(-c3cn(C)c4ccccc34)ccn2)ccc1N1CCCC1 [Compound 31]

Compound: O=C(O[C@@H]1Cc2c(O)cc(O)cc2O[C@@H]1c1cc(O)c(O)c(O)c1)c1cc(O)c(O)c(O)c1 [EGCG]
inhibitory activity toward the aggregation of tau in HEK biosensor cells (number of cells with aggregates relative to DMSO) ([1]; control compounds compared with Osimertinib, compound 2 and compound 3): much lower inhibitory activity
